One assay concerns the target Neuraminidase (Influenza A virus, UniProt B4URF0). As to the kind of experiment: Inhibition of Influenza A H1N1 virus neuraminidase after 1 hr by spectrofluorimetry using 2-(4-meythylumbelliferyl)-alpha-D-acetylneuramic acid as substrate.
Assay [1] addresses Neuraminidase (Influenza A virus) (UniProt B4URF0). The assay can be described thus: Inhibition of Influenza A H1N1 virus neuraminidase at 40 uM after 1 hr by spectrofluorimetry using 2-(4-meythylumbelliferyl)-alpha-D-acetylneuramic acid as substrate.
Assay [2] shares this target. The assay can be described thus: Inhibition of Influenza A H1N1 virus neuraminidase at 8 uM after 1 hr by spectrofluorimetry using 2-(4-meythylumbelliferyl)-alpha-D-acetylneuramic acid as substrate.
Assay [3] has the same target. The assay can be described thus: Inhibition of Influenza A H1N1 virus neuraminidase at 200 uM after 1 hr by spectrofluorimetry using 2-(4-meythylumbelliferyl)-alpha-D-acetylneuramic acid as substrate.
The nature of assay [4]: Cytotoxicity against human L02 cells after 48 hrs by MTT assay. The assay is classed as cell-based. The note with it: L02, 48 h. Background: Tetrazolium dyes change colour on reduction, which living cells bring about.
The target of assay [5] is Neuraminidase (Influenza A virus) (UniProt B4URF0). As to the kind of experiment: Inhibition of Influenza A H1N1 virus neuraminidase at 1.6 uM after 1 hr by spectrofluorimetry using 2-(4-meythylumbelliferyl)-alpha-D-acetylneuramic acid as substrate.
The target is the same in assay [6]. As to the kind of experiment: Inhibition of Influenza A H1N1 virus neuraminidase at 100 nM after 1 hr by spectrofluorimetry using 2-(4-meythylumbelliferyl)-alpha-D-acetylneuramic acid as substrate.
Assay [7] shares this target. The assay can be described thus: Inhibition of Influenza A H1N1 virus neuraminidase at 0.16 nM after 1 hr by spectrofluorimetry using 2-(4-meythylumbelliferyl)-alpha-D-acetylneuramic acid as substrate.
For assay [8] the target is unchanged. The assay can be described thus: Inhibition of Influenza A H1N1 virus neuraminidase at 20 nM after 1 hr by spectrofluorimetry using 2-(4-meythylumbelliferyl)-alpha-D-acetylneuramic acid as substrate.
Assay [9] shares this target. As to the kind of experiment: Inhibition of Influenza A H1N1 virus neuraminidase at 4 nM after 1 hr by spectrofluorimetry using 2-(4-meythylumbelliferyl)-alpha-D-acetylneuramic acid as substrate.
The target is the same in assay [10]. The assay can be described thus: Inhibition of Influenza A H1N1 virus neuraminidase at 0.8 nM after 1 hr by spectrofluorimetry using 2-(4-meythylumbelliferyl)-alpha-D-acetylneuramic acid as substrate.

Each structure is given as a SMILES string.

Chain of Neuraminidase (B4URF0 whole entry): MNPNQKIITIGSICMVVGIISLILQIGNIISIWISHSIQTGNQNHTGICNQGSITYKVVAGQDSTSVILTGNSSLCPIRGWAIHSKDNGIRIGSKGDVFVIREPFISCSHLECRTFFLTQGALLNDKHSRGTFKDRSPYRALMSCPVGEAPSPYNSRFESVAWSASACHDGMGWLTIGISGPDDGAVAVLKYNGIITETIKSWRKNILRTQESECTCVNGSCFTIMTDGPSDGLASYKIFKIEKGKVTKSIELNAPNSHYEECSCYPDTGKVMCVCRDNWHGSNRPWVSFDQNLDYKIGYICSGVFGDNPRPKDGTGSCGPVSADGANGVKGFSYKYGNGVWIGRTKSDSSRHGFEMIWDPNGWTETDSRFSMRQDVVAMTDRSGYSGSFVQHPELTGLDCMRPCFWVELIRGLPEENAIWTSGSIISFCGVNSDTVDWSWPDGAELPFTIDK
Chain of Neuraminidase (Influenza A virus) (B4URF0 as listed by the source): as the sequence (B4URF0 whole entry) above

The compound `CCOC(=O)C1C(=O)NC(N)=NC1c1ccc(Cl)cc1Cl` (centres undefined) yielded an IC50 on Neuraminidase of 120 µM. The same measure, in the same setting: as for `CCOC(=O)C1C(=O)NC(NC(C)=O)=NC1c1ccccc1` (centres undefined), the figure is 57.5 µM; as for `CCOC(=O)C1C(=O)NC(NC(C)=O)=NC1c1ccc([N+](=O)[O-])cc1` (centres undefined), 145 µM.

In the case of `CCOC(=O)C1C(=O)NC(N)=NC1c1ccc(OC)c(OC)c1` (centres undefined), on Neuraminidase, the IC50 is above 200 µM. On to `CCOC(=O)C1C(=O)NC(NC(C)=O)=NC1c1ccc(Cl)cc1` (centres undefined), for which the IC50 on Neuraminidase came out at 89.6 µM. On the same count and under the same terms, as for `CCOC(=O)C1C(=O)NC(N)=NC1c1ccccc1Cl` (centres undefined), the figure is 86.9 µM; as for `CCOC(=O)C1C(=O)NC(NC(C)=O)=NC1c1ccc(OC)cc1` (centres undefined), 166 µM. On to `CCOC(=O)C1C(=O)NC(NC(=O)C(F)(F)F)=NC1c1ccc(Br)cc1` (centres undefined), for which, on Neuraminidase, the IC50 was 69.8 µM. At Neuraminidase, `CCOC(=O)C1C(=O)NC(N)=NC1c1ccc(Br)cc1` (centres undefined) yielded an IC50 of 125 µM.

For `CCOC(=O)C1C(=O)NC(NC(C)=O)=NC1c1ccccc1Cl` (centres undefined), the IC50 against Neuraminidase was 36.7 µM. Still for that read-out and setting: then `CCOC(=O)C1C(=O)NC(N)=NC1c1ccc(C)cc1` (centres undefined), with above 200 µM. `CCOC(=O)C1C(=O)NC(NC(C)=O)=NC1c1ccccc1[N+](=O)[O-]` (centres undefined): the inhibition is 53% in assay [1], 25% in assay [2], 82% in assay [3] and 8% in [5]. Besides, the IC50 on Neuraminidase is 17.6 µM; in assay [4], above 10 mM. `CCOC(=O)C1C(=O)NC(NC(C)=O)=NC1c1ccc(OC)c(OC)c1` (centres undefined) had an IC50 at Neuraminidase above 200 µM.

`CCOC(=O)C1C(=O)NC(NC(C)=O)=NC1c1ccc(Br)cc1` (centres undefined) showed an IC50 against Neuraminidase of 71.3 µM.

Take `CCOC(=O)C1C(=O)NC(NC(C)=O)=NC1c1ccc(Cl)cc1Cl` (centres undefined): the inhibition in assay [1] came to 61%; in assay [2], 38%; in assay [3], 94%; in assay [5], 8%. Further, the IC50 was 28.5 µM against Neuraminidase and above 10 mM in [4]. The compound `CCOC(=O)C1C(=O)NC(N)=NC1c1ccc([N+](=O)[O-])cc1` (centres undefined) gave an IC50 at Neuraminidase of 189 µM.

On Neuraminidase, `CCOC(=O)C1C(=O)NC(N)=NC1c1ccccc1` (centres undefined) came in with an IC50 of 129 µM.

In the case of `CCOC(=O)C1C(=O)NC(NC(C)=O)=NC1c1ccccc1F` (centres undefined), on Neuraminidase, the 50% inhibitory concentration (IC50) turned out to be 46.5 µM. Still for that read-out and setting: then `CCOC(=O)C1C(=O)NC(N)=NC1c1ccco1` (centres undefined), with above 200 µM; and `CCOC(=O)C1C(=O)NC(N)=NC1c1ccc(N(C)C)cc1` (centres undefined), with above 200 µM. On the same count and under the same terms, then `CCOC(=O)C1C(=O)NC(N)=NC1C(C)C` (centres undefined), with above 200 µM; and `CCOC(=O)C1C(=O)NC(NC(=O)CC)=NC1c1ccc(Br)cc1` (centres undefined), with 106 µM.

`CCOC(=O)C1C(=O)NC(NC(C)=O)=NC1c1ccc(Br)cc1F` (centres undefined): the inhibition in assay [1] is 52%; in assay [2] it was 24%; in assay [3], 86%; in assay [5] it was 7%. In addition, the IC50 is 29.7 µM on Neuraminidase and above 10 mM in [4]. With `CCOC(=O)C1C(=O)NC(N)=NC1c1ccc(F)cc1` (centres undefined), half-maximal inhibition on Neuraminidase (IC50) was put at 145 µM. As to `CCOC(=O)C1=C[C@@H](OC(CC)CC)[C@H](NC(C)=O)[C@@H](N)C1`, the inhibition came out at 99% in [6]; 17% in assay [7]; 97% in assay [8]; 84% in [9]; 51% in assay [10]. As for `CCOC(=O)C1C(=O)NC(NC(C)=O)=NC1c1ccc(N(C)C)cc1` (centres undefined), the midpoint of inhibition against Neuraminidase, the IC50, lay at 139 µM.

Consider `CCOC(=O)C1C(=O)NC(NC(C)=O)=NC1c1ccco1` (centres undefined), for which the IC50 against Neuraminidase was above 200 µM. Same read-out and setting: as for `CCOC(=O)C1C(=O)NC(NC(C)=O)=NC1C(C)C` (centres undefined), the figure is above 200 µM; as for `CCOC(=O)C1C(=O)NC(N)=NC1c1ccc(Cl)cc1` (centres undefined), 110 µM. Still for that read-out and setting: then `CCOC(=O)C1C(=O)NC(N)=NC1c1ccccc1[N+](=O)[O-]` (centres undefined), with 75.7 µM; and `CCOC(=O)C1C(=O)NC(NC(C)=O)=NC1c1ccc(C)cc1` (centres undefined), with 165 µM. On the same count and under the same terms, as for `CCOC(=O)C1C(=O)NC(N)=NC1c1ccccc1F` (centres undefined), the figure is 89 µM; as for `CCOC(=O)C1C(=O)NC(N)=NC1c1ccc(Br)cc1F` (centres undefined), 121 µM.

`CCOC(=O)C1C(=O)NC(NC(C)=O)=NC1c1ccc(F)cc1` (centres undefined) yielded an IC50 against Neuraminidase of 96.5 µM. On the same count and under the same terms, as for `CCOC(=O)C1C(=O)NC(N)=NC1c1ccc(OC)cc1` (centres undefined), the figure is above 200 µM.

A word on the IC50: it is the point on the concentration scale where inhibition reaches its midpoint. The inhibition is the percentage by which the read-out fell short of the control. Low values mean little suppression, high ones strong suppression.
